The values below come from paper PMC6194148, “Phenylindanes in Brewed Coffee Inhibit Amyloid-Beta and Tau Aggregation” (Frontiers in Neuroscience, 2018).

Read-outs that look alike come from different tables or passages of the source.

Holding throughout (assay type): biochemical
One assay deals with T1, tau (tau40) (Homo sapiens, UniProt P10636).
T1 construct: gene MAPT; Human tau40, tag-free, expressed in E. coli
Description: ThS fluorescence fibrillization assay (heparin-containing buffer); […] inhibition at […], […] at […]. The following applies: read-out: Tau fibril inhibition (%).

Assay [1] has as its target T2, amyloid-beta (Aβ) (Homo sapiens, UniProt P05067). Description: Aβ oligomerization ELISA (biotinylated Aβ[…]-42); also ThT fibrillization, […] inhibition at […]. Further details: gene APP; biotinylated Aβ1-42 (oligomerization); Aβ1-40 (fibrillization). (In general: In an ELISA, binding on a coated surface is turned into a signal by an enzyme label.)
Target sequence in this assay (P05067 672-713): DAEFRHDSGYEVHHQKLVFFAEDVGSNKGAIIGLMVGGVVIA
The target in assay [2] is T2, amyloid-beta (Aβ). In words: ThT fluorescence fibrillization assay at […]; no inhibition of Aβ oligomerization. Further details: gene APP; Aβ1-40. The following applies: read-out: Aβ fibril inhibition (%).
Target sequence in this assay (P05067 672-711): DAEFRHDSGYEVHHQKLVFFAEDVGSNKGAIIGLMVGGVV
Assay [3] has as its target T2, amyloid-beta (Aβ). In words: Aβ oligomerization ELISA (biotinylated Aβ[…]-42); also ThT fibrillization, […] inhibition at […]. Further details: gene APP; biotinylated Aβ1-42 (oligomerization); Aβ1-40 (fibrillization). This is another data set of the same source.
Target sequence in this assay (P05067 672-713): as the sequence (P05067 672-713) above

T1 sequence (P10636 2-441 isoform P10636-8): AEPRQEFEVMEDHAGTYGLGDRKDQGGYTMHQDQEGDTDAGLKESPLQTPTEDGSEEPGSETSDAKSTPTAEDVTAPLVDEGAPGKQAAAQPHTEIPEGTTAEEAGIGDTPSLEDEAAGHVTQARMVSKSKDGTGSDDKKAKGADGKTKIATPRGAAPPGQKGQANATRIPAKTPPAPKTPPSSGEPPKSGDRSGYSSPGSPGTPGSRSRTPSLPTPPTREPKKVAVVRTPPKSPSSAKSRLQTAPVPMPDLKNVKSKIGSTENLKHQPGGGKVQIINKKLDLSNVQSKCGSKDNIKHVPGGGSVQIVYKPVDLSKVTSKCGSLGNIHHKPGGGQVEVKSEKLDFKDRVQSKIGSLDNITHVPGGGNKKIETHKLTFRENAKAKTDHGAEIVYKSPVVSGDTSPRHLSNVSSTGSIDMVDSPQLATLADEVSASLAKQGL

Consider `CC1CC(c2ccc(O)c(O)c2)c2cc(O)c(O)cc21` (mixture of isomers) [compound 6, Phenylindane], for which the inhibition (as a rule, the percentage by which the read-out fell short of the control) at 100 µM at tau (tau40) came to 95.2 ± 1.7%. Inhibition against amyloid-beta (Aβ) [1] was half-maximal at 42.1 ± 1.4 µM (IC50).
On to `O=C(/C=C/c1ccc(O)c(O)c1)O[C@@H]1C[C@](O)(C(=O)O)C[C@@H](O)[C@H]1O` [compound 2, Chlorogenic acid], for which the inhibition at 100 µM at amyloid-beta (Aβ) [2] was 97.7 ± 0.7%.
On to `O=C(O)/C=C/c1ccc(O)c(O)c1` [compound 4, Caffeic acid], for which the inhibition at 100 µM at amyloid-beta (Aβ) [2] turned out to be 99.4 ± 0.9%.
On to `O=c1c(O)c(-c2ccc(O)c(O)c2)oc2cc(O)cc(O)c12` [compound 5, Quercetin], for which the IC50 (in general, the concentration that inhibits the measured activity by half) against amyloid-beta (Aβ) [3] came out at 10.3 ± 1.1 µM.
